Results from patent US11253486B2, “Bakuchiol compositions for treatment of post inflammatory hyperpigmentation” (Unigen, Inc., priority 2011, dated 2022).
Values belong to the molecule of their own block, whether it stands above or below them.

Tests used:
[1] = system: acne lesions and Post Inflammatory Hyperpigmentation; conditions: OTC drugs, Studies 1-3, 10 or 12 week studies; cited from earlier work
[2] = system: subjects with PIH related to acne; experiment: Double blind placebo and positive controlled study for PIH related to acne (Example 11); type: in vivo, human; conditions: for PIH grade, mean: cream twice a day to the face
Experimental: The safety and efficacy of a 0.5% (wt/wt) cream of bakuchiol (UP256) was evaluated in a double blind placebo and positive controlled study for the treatment of PIH related to acne. The study evaluated a bakuchiol cream at 0.5% concentration, a 2% Salicylic acid cream and a placebo cream (Vehicle) in an Asian population. The participants were instructed to apply the study creams to the face twice a day (AM/PM). Study participants were given instructions for application and provided with sunscreen.
The study population consisted of male and female subjects older than 18 and younger than 40 years and in generally good health as determined by a medical history. The bakuchiol study arm enrolled 18 subjects, the Salicylic acid (SAL) study arm enrolled 20 subjects, and the placebo study arm enrolled 19 subjects.
The PIH grade is a measure of the severity of the hyperpigmentation (higher number=more severe pigmentation).
Primary Study Objectives: • 1. PIH IGA Time Frame: Baseline and weeks 2, 4 and 8 • 2. PIH % Distribution Time Frame: Baseline and weeks 2, 4 and 8
PIH efficacy was evaluated based on changes from baseline (p<0.05) and over other treatment groups (p<0.05) using t-test or/and ANOVA.
Subject's Assessment questionnaires and Tolerability Assessments were collected at Baseline and weeks 2, 4, and 8. Urine pregnancy tests for females of childbearing potential were collected at Baseline and week 8.
The following data was collected: • 1. Change from baseline in PIH Severity; • 2. Change from baseline in the PIH Grade; and • 3. Change from baseline in the Lesion counts
The data was analyzed from Investigator evaluations at each visit and from photographs taken at the specified time points. The photographs from baseline, week 4, and week 8 were evaluated by a second group of investigators and two independent dermatologists before the study was unblended to further confirm that the population met criteria. The data analyzed is based on confirmed evaluations, there was no photo for week two therefore week two data is not included in the analysis.

[3] = Percutaneous absorption ex-vivo test; type: in vitro ADME, human; conditions: 0.5% formulation concentration, single application, over 48 hours
Source text: The partition coefficient of a chemical compound provides a thermodynamic measure of its hydrophilicity/lipophilicity balance and thus its potential bioavailability. […] The skin penetration of the active compound—bakuchiol in a skin care cream was quantified in an ex-vivo test on isolated human skin. […] In certain embodiments, the disclosed compositions comprise a skin penetration enhancer.
Two natural bakuchiol compositions comprising 86.54% bakuchiol and 77.02% bakuchiol and a combined total of less than 100 ppm psoralen and angelicin (isopsoralen) were formulated in a cosmetic vehicle or complicated skin care cream and tested on in vitro models or in human clinical trials for their safety profile.

[4] = target: mushroom tyrosinase (Agaricus bisporus, UniProt C7FF04); experiment: Tyrosinase inhibition assay (L-DOPA to dopachrome); type: biochemical; conditions: eight different dosages; <100 ppm furanocoumarins; FIG. 4
Chain of mushroom tyrosinase (C7FF04 2-392): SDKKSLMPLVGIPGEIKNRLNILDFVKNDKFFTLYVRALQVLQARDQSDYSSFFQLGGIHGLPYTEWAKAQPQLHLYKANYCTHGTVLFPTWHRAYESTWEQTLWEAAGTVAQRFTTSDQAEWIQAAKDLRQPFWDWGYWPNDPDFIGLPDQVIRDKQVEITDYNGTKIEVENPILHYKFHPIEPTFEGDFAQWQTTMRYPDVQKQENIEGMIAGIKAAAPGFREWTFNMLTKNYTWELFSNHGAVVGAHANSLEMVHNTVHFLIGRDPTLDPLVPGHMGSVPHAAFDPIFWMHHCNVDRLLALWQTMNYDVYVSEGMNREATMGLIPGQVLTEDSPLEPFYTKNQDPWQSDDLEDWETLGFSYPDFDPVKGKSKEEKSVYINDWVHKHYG
Experimental: A tyrosinase inhibition assay was carried out using the method reported by Jones et al. (2002) Pigment. […] Using this method, the conversion of L-Dopa, a substrate of tyrosinase, into dopachrome was followed by monitoring absorption at 450 nm. Tyrosinase was prepared in 50 mM potassium phosphate buffer, pH 6.8 (assay buffer) at 2000 U/ml and stored at −20° C. in 1 ml aliquots prior to use. For use in assays, stock enzyme solutions were thawed and diluted to 200 U/ml with assay buffer. A 2 mM working solution of substrate, L-DOPA, was prepared in assay buffer for each assay. Samples were dissolved in 10% DMSO (0.5 ml) and diluted to 5 ml with assay buffer. The reaction mixture comprised 0.050 ml 2 mM L-DOPA, 0.050 ml 200 U/ml mushroom tyrosinase and 0.050 ml inhibitor. Reaction volume was adjusted to 200 μl with assay buffer. Assays were performed in 96 well Falcon 3097 flat-bottom microtiter plates (Beckton Dickinson, N.J.). Appearance of dopachrome was measured with a WALLAC 1420 Multilable Counter (Turku, Finland). Average velocity was determined from linear enzyme rate as measured by change in absorbance (ΔA450) at 450 nm per minute. Percent inhibition of tyrosinase by test samples was determined by comparison of absorbance of samples versus control using formula (1): (Negative control absorption−sample absorption)/Negative control absorption×100 (1)

[5] = questionnaire and investigator safety evaluation, count

Structure (SMILES): O=C(OOC(=O)c1ccccc1)c1ccccc1 [Benzoyl peroxide (5%), Benzoyl peroxide]
Improvement of Post Inflammatory Hyperpigmentation [1]: 0
Mean percent reduction in inflammatory lesion counts [1]: 32%
Mean percent reduction in non-inflammatory lesion counts [1]: 22%
Mean percent reduction in total lesion counts [1]: 28%

Structure (SMILES): O=C(O)c1ccccc1O [Salicylic Acid, Salicylic acid]
Inflammatory acne lesions, mean ([2]; Baseline): 11.2
PIH grade, mean ([2]; Baseline): 3.15
Inflammatory acne lesions, mean ([2]; Week 4): 9.25
PIH grade, mean ([2]; Week 4): 3.2
Inflammatory acne lesions, mean ([2]; Week 8): 8.65
PIH grade, mean ([2]; Week 8): 3.2
Subject assessment: Itching/Burning [2, 5]: 4
Subject assessment: Skin Discomfort [2, 5]: 2

tyrosinase inhibition activity [4]: no tyrosinase inhibition function
Structure (SMILES): C=CC(C)(/C=C/c1ccc(O)cc1)CCC=C(C)C (centres unmarked) [bakuchiol]
skin penetration / percutaneous absorption [3]: good skin penetration and bioavailability
